From ChEMBL document CHEMBL2073889, “ATP-dependent transport of beta-estradiol 17-(beta-D-glucuronide) in rat canalicular membrane vesicles” (Am J Physiol, 1996) come the findings set out here.

The target in this assay is Multidrug resistance protein 1a (Rattus norvegicus) (UniProt Q6PSM0). The experiment in a line: TP_TRANSPORTER: uptake, inhibited by C219 antibody in bile canalicular membrane vesicles from SD rat. It counts as functional, cell membranes. The conditions noted are these: Sprague-Dawley, Bile canalicular membrane vesicle.
Sequence of Multidrug resistance protein 1a (Rattus norvegicus) (Q6PSM0 as listed by the source): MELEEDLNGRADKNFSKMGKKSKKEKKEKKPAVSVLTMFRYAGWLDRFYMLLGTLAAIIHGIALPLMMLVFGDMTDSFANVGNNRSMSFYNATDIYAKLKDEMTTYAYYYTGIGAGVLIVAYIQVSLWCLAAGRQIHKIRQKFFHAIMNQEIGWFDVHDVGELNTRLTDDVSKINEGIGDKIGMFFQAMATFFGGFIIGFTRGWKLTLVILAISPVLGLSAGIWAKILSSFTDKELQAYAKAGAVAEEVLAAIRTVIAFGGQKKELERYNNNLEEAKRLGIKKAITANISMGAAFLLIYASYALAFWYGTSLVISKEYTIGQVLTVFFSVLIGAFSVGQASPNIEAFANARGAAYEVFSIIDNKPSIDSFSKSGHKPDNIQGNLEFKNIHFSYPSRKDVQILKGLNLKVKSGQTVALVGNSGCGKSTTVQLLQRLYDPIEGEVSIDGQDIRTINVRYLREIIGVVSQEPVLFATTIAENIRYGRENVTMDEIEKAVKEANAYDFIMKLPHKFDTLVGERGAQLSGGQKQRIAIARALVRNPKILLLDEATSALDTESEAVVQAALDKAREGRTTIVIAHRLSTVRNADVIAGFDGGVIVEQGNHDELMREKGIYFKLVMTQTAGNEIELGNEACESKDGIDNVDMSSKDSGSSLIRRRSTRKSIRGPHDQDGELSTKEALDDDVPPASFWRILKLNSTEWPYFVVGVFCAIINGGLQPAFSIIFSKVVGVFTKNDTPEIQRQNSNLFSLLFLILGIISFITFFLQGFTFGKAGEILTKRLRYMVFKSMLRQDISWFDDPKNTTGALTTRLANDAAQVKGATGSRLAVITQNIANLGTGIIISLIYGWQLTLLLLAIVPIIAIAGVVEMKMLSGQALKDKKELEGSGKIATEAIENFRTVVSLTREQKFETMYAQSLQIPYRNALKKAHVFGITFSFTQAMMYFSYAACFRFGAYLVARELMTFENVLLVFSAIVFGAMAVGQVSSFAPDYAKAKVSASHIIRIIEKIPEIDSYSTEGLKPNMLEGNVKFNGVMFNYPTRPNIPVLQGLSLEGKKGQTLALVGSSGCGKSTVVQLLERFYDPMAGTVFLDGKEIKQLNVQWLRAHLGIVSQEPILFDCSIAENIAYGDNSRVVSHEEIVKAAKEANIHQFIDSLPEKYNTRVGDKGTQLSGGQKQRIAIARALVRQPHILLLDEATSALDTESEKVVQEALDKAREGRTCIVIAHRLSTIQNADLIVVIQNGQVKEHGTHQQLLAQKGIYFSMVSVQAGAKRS

For `C[C@]12CC[C@@H]3c4ccc(O)cc4CC[C@H]3[C@@H]1CC[C@@H]2O[C@@H]1O[C@H](C(=O)O)[C@@H](O)[C@H](O)[C@H]1O`, the Activity entry is “substrate [+]”.
